# Results: PubChem BioAssay (NCI)
#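 Assay format: 96-well plates, 48-hour exposure. TGI denotes the concentration required for complete inhibition of growth.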
# Tests used:
# Test in all cases: NCI anticancer screen, dose series, 48 h
# 786-0 renal = tested on: 786-0 renal
# A498 renal = tested on: A498 renal
# A549 NSCLC = tested on: A549 NSCLC
# ACHN renal = tested on: ACHN renal
# BT-549 breast = tested on: BT-549 breast
# CAKI-1 renal = tested on: CAKI-1 renal
# CCRF-CEM leukemia = tested on: CCRF-CEM leukemia
# COLO 205 colon = tested on: COLO 205 colon
# DU-145 prostate = tested on: DU-145 prostate
# EKVX NSCLC = tested on: EKVX NSCLC
# HCC-2998 colon = tested on: HCC-2998 colon
# HCT-116 colon = tested on: HCT-116 colon
# HCT-15 colon = tested on: HCT-15 colon
# HL-60(TB) leukemia = tested on: HL-60(TB) leukemia
# HOP-62 NSCLC = tested on: HOP-62 NSCLC
# HOP-92 NSCLC = tested on: HOP-92 NSCLC
# HS 578T breast = tested on: HS 578T breast
# HT29 colon = tested on: HT29 colon
# IGROV1 ovarian = tested on: IGROV1 ovarian
# K-562 leukemia = tested on: K-562 leukemia
# KM12 colon = tested on: KM12 colon
# LOX IMVI melanoma = tested on: LOX IMVI melanoma
# M14 melanoma = tested on: M14 melanoma
# MALME-3M melanoma = tested on: MALME-3M melanoma
# MCF7 breast = tested on: MCF7 breast
# MDA-MB-231 breast = tested on: MDA-MB-231 breast
# MDA-MB-435 = tested on: MDA-MB-435
# MDA-N = tested on: MDA-N
# MOLT-4 leukemia = tested on: MOLT-4 leukemia
# NCI-H226 lung = tested on: NCI-H226 lung
# NCI-H23 lung = tested on: NCI-H23 lung
# NCI-H460 lung = tested on: NCI-H460 lung
# NCI-H522 lung = tested on: NCI-H522 lung
# NCI/ADR-RES ovarian = tested on: NCI/ADR-RES ovarian
# OVCAR-3 ovarian = tested on: OVCAR-3 ovarian
# OVCAR-4 ovarian = tested on: OVCAR-4 ovarian
# OVCAR-5 ovarian = tested on: OVCAR-5 ovarian
# OVCAR-8 ovarian = tested on: OVCAR-8 ovarian
# PC-3 prostate = tested on: PC-3 prostate
# RPMI-8226 leukemia = tested on: RPMI-8226 leukemia
# RXF 393 renal = tested on: RXF 393 renal
# SF-268 CNS = tested on: SF-268 CNS
# SF-295 CNS = tested on: SF-295 CNS
# SF-539 CNS = tested on: SF-539 CNS
# SK-MEL-2 melanoma = tested on: SK-MEL-2 melanoma
# SK-MEL-28 melanoma = tested on: SK-MEL-28 melanoma
# SK-MEL-5 melanoma = tested on: SK-MEL-5 melanoma
# SK-OV-3 ovarian = tested on: SK-OV-3 ovarian
# SN12C renal = tested on: SN12C renal
# SNB-19 CNS = tested on: SNB-19 CNS
# SNB-75 CNS = tested on: SNB-75 CNS
# SR leukemia = tested on: SR leukemia
# SW-620 colon = tested on: SW-620 colon
# T-47D breast = tested on: T-47D breast
# TK-10 renal = tested on: TK-10 renal
# U251 CNS = tested on: U251 CNS
# UACC-257 melanoma = tested on: UACC-257 melanoma
# UACC-62 melanoma = tested on: UACC-62 melanoma
# UO-31 renal = tested on: UO-31 renal
compound,measurement,setting,value
CN1CCC2(CC1)SC[C@H]1C(=O)N(c3ccc(Cl)cc3)C(=O)N12,TGI,786-0 renal,> 100 µM
same,TGI,A498 renal,86.3 µM
same,TGI,A549 NSCLC,> 100 µM
same,TGI,ACHN renal,> 100 µM
same,TGI,BT-549 breast,> 100 µM
same,TGI,CAKI-1 renal,> 100 µM
same,TGI,CCRF-CEM leukemia,> 100 µM
same,TGI,COLO 205 colon,> 100 µM
same,TGI,DU-145 prostate,> 100 µM
same,TGI,EKVX NSCLC,> 100 µM
same,TGI,HCC-2998 colon,> 100 µM
same,TGI,HCT-116 colon,> 100 µM
same,TGI,HCT-15 colon,> 100 µM
same,TGI,HL-60(TB) leukemia,> 100 µM
same,TGI,HOP-62 NSCLC,> 100 µM
same,TGI,HOP-92 NSCLC,> 100 µM
same,TGI,HS 578T breast,> 100 µM
same,TGI,HT29 colon,> 100 µM
same,TGI,IGROV1 ovarian,> 100 µM
same,TGI,K-562 leukemia,> 100 µM
same,TGI,KM12 colon,> 100 µM
same,TGI,LOX IMVI melanoma,> 100 µM
same,TGI,M14 melanoma,> 100 µM
same,TGI,MALME-3M melanoma,> 100 µM
same,TGI,MCF7 breast,> 100 µM
same,TGI,MDA-MB-231 breast,> 100 µM
same,TGI,MDA-MB-435,> 100 µM
same,TGI,MDA-N,> 100 µM
same,TGI,MOLT-4 leukemia,> 100 µM
same,TGI,NCI-H226 lung,> 100 µM
same,TGI,NCI-H23 lung,> 100 µM
same,TGI,NCI-H460 lung,> 100 µM
same,TGI,NCI-H522 lung,> 100 µM
same,TGI,NCI/ADR-RES ovarian,> 100 µM
same,TGI,OVCAR-3 ovarian,> 100 µM
same,TGI,OVCAR-4 ovarian,> 100 µM
same,TGI,OVCAR-5 ovarian,> 100 µM
same,TGI,OVCAR-8 ovarian,> 100 µM
same,TGI,PC-3 prostate,> 100 µM
same,TGI,RPMI-8226 leukemia,> 100 µM
same,TGI,RXF 393 renal,> 100 µM
same,TGI,SF-268 CNS,> 100 µM
same,TGI,SF-295 CNS,> 100 µM
same,TGI,SF-539 CNS,> 100 µM
same,TGI,SK-MEL-2 melanoma,> 100 µM
same,TGI,SK-MEL-28 melanoma,> 100 µM
same,TGI,SK-MEL-5 melanoma,> 100 µM
same,TGI,SK-OV-3 ovarian,> 100 µM
same,TGI,SN12C renal,> 100 µM
same,TGI,SNB-19 CNS,> 100 µM
same,TGI,SNB-75 CNS,> 100 µM
same,TGI,SR leukemia,> 100 µM
same,TGI,SW-620 colon,> 100 µM
same,TGI,T-47D breast,> 100 µM
same,TGI,TK-10 renal,> 100 µM
same,TGI,U251 CNS,> 100 µM
same,TGI,UACC-257 melanoma,> 100 µM
same,TGI,UACC-62 melanoma,> 100 µM
same,TGI,UO-31 renal,> 100 µM
COc1ccc2cc(CNCCCCCCCCCCCCNCc3ccc4cc(OC)ccc4c3)ccc2c1,TGI,786-0 renal,30.1 µM
same,TGI,A498 renal,31.9 µM
same,TGI,A549 NSCLC,> 54.8 µM
same,TGI,ACHN renal,36.6 µM
same,TGI,BT-549 breast,33 µM
same,TGI,CAKI-1 renal,47.3 µM
same,TGI,CCRF-CEM leukemia,> 37.4 µM
same,TGI,COLO 205 colon,> 55.9 µM
same,TGI,DU-145 prostate,> 56.1 µM
same,TGI,EKVX NSCLC,37.6 µM
same,TGI,HCC-2998 colon,39.1 µM
same,TGI,HCT-116 colon,32.8 µM
same,TGI,HCT-15 colon,50.9 µM
same,TGI,HL-60(TB) leukemia,34.9 µM
same,TGI,HOP-62 NSCLC,39.2 µM
same,TGI,HOP-92 NSCLC,47.5 µM
same,TGI,HS 578T breast,31.7 µM
same,TGI,HT29 colon,23 µM
same,TGI,IGROV1 ovarian,29.9 µM
same,TGI,K-562 leukemia,> 50 µM
same,TGI,KM12 colon,40.1 µM
same,TGI,LOX IMVI melanoma,28.2 µM
same,TGI,M14 melanoma,35.9 µM
same,TGI,MALME-3M melanoma,31.8 µM
same,TGI,MCF7 breast,31.9 µM
same,TGI,MDA-MB-231 breast,> 51.5 µM
same,TGI,MDA-MB-435,> 55.5 µM
same,TGI,MDA-N,> 54.4 µM
same,TGI,MOLT-4 leukemia,> 58.9 µM
same,TGI,NCI-H226 lung,32.5 µM
same,TGI,NCI-H23 lung,34.3 µM
same,TGI,NCI-H460 lung,35.8 µM
same,TGI,NCI-H522 lung,33.8 µM
same,TGI,NCI/ADR-RES ovarian,43 µM
same,TGI,OVCAR-3 ovarian,37.1 µM
same,TGI,OVCAR-4 ovarian,41.3 µM
same,TGI,OVCAR-5 ovarian,> 57.1 µM
same,TGI,OVCAR-8 ovarian,32.4 µM
same,TGI,PC-3 prostate,> 55.4 µM
same,TGI,RPMI-8226 leukemia,42.6 µM
same,TGI,RXF 393 renal,28.7 µM
same,TGI,SF-268 CNS,27.2 µM
same,TGI,SF-295 CNS,42.2 µM
same,TGI,SF-539 CNS,31.8 µM
same,TGI,SK-MEL-2 melanoma,41.1 µM
same,TGI,SK-MEL-28 melanoma,> 56 µM
same,TGI,SK-MEL-5 melanoma,> 54 µM
same,TGI,SK-OV-3 ovarian,32.7 µM
same,TGI,SN12C renal,46.9 µM
same,TGI,SNB-19 CNS,31.3 µM
same,TGI,SNB-75 CNS,28.7 µM
same,TGI,SR leukemia,> 21.5 µM
same,TGI,SW-620 colon,> 51.9 µM
same,TGI,T-47D breast,49.9 µM
same,TGI,TK-10 renal,32.8 µM
same,TGI,U251 CNS,43.8 µM
same,TGI,UACC-257 melanoma,36.3 µM
same,TGI,UACC-62 melanoma,38.4 µM
same,TGI,UO-31 renal,35.8 µM
